Source: paper PMC4448988 (Pharmacology Research & Perspectives, 2015)

What was measured:
[1] = target: human CYP24A1 (Homo sapiens, UniProt Q07973); assay type: in vitro ADME; settings: pH 7.4
[2] = test system: ED-71 O-dehydroxypropylation activity in human small intestine microsomes; assay type: in vitro ADME; settings: 1 μmol/L ketoconazole

Relative kcat/Km [1]	Structure (SMILES)	ED-71 O-dehydroxypropylation activity reduced to (remaining activity) [2] [%]
1	C=C1/C(=C\C=C2/CCC[C@]3(C)[C@@H]([C@H](C)CCCC(C)(C)O)CC[C@@H]23)C[C@@H](O)C[C@@H]1O [1α,25(OH)2D3, 1α,25-dihydroxyvitamin D3]	
	CC(=O)N1CCN(c2ccc(OCC3COC(Cn4ccnc4)(c4ccc(Cl)cc4Cl)O3)cc2)CC1 (centres unmarked) [ketoconazole]	37
